Assay results: US20240132489A1, “AROMATIC HETEROCYCLIC COMPOUND, PHARMACEUTICAL COMPOSITION, AND USE THEREOF” (GT APEIRON THERAPEUTICS LIMITED, priority 2020, published 2024)
Counter-ions that a name gives are not always drawn.

Columns and labels:
A2780 cells = assay: Cell bioactivity detection (CyQuant), A2780; format: cell-based, human; settings: ovarian carcinoma cells A2780, 72 hours
Procedure, shortened: (§1)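 A2780 or HCC70 cells (2000/well, RPMI 1640 + 10% FBS) were seeded overnight, then treated for 72 h at 37° C, 5% CO2 with compound: top 10 μM, 1:4 dilutions, 9 points, 0.2% DMSO. Viable cell number was measured by CyQuant Direct nucleic-acid staining (≥60 min, 37° C) on an Acumen reader at 488 nm excitation, and IC50 was calculated.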

HCC70 cells = assay: Cell bioactivity detection (CyQuant), HCC70; format: cell-based; settings: human breast cancer cells HCC70, 72 hours
Procedure, shortened: as §1

CDK2/cyclin E1 complex = CDK2/cyclin E1 complex (Homo sapiens (Human), UniProt P24941); assay: In vitro enzymatic inhibitory activity test, CDK2; format: biochemical; settings: Caliper mobility shift, 180 min at 27° C.
CDK9/CyclinT1 = CDK9/CyclinT1 (Homo sapiens (Human), UniProt P50750); assay: In vitro enzymatic inhibitory activity test, CDK9; format: biochemical; settings: Caliper mobility shift, 180 min at 27° C.
Chain of CDK9/CyclinT1 (P50750 whole entry, species assumed, the tested form may be a part): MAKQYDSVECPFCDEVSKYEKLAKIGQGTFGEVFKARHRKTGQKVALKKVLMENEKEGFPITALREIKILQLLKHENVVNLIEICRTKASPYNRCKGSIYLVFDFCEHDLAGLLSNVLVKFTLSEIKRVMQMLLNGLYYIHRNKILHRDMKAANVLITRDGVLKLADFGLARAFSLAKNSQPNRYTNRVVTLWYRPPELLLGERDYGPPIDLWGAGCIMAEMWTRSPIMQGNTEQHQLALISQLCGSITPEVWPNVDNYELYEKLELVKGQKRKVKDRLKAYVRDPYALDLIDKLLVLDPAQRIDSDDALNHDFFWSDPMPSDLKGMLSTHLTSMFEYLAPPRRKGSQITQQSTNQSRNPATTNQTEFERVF
Chain of CDK9/CyclinT1 (O60563 whole entry partner, species assumed, the tested form may be a part): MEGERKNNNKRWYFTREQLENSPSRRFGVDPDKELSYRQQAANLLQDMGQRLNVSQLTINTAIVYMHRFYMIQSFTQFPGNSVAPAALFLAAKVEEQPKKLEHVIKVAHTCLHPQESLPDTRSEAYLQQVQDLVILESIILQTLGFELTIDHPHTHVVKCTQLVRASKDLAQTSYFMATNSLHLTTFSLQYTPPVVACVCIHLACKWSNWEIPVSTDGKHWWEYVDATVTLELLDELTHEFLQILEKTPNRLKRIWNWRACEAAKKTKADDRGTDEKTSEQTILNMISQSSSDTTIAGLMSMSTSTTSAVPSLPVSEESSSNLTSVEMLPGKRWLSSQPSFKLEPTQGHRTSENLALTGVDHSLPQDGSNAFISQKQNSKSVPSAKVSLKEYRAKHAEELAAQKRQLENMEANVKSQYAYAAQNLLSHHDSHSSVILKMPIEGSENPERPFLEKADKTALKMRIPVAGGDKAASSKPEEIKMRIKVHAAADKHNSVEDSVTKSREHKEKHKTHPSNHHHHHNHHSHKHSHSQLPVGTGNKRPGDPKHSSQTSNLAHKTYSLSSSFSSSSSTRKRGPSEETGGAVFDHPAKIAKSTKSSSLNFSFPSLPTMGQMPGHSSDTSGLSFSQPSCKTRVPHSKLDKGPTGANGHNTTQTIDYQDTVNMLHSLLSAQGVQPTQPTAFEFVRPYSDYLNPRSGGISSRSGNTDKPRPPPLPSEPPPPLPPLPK

[1] = target: CDK12(aa686-1082)/cyclin K complex (Homo sapiens (Human), UniProt Q9NYV4); assay: In vitro enzymatic inhibitory activity test, CDK12; format: biochemical; settings: Caliper mobility shift, 180 min at 27° C.
Chain of CDK12(aa686-1082)/cyclin K complex (Q9NYV4 686-1082, species assumed): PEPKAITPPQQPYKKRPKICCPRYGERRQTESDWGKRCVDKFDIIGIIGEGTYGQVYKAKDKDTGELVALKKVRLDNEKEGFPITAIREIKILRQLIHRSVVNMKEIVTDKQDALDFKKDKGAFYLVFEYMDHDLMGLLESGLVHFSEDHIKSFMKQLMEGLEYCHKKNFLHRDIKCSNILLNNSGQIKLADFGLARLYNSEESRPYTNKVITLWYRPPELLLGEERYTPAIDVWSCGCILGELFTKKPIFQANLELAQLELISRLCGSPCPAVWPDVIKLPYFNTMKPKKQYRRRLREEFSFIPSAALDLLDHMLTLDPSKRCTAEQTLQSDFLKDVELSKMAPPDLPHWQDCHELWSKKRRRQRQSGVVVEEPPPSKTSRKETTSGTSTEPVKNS
Chain of CDK12(aa686-1082)/cyclin K complex (O75909 whole entry partner, species assumed, the tested form may be a part): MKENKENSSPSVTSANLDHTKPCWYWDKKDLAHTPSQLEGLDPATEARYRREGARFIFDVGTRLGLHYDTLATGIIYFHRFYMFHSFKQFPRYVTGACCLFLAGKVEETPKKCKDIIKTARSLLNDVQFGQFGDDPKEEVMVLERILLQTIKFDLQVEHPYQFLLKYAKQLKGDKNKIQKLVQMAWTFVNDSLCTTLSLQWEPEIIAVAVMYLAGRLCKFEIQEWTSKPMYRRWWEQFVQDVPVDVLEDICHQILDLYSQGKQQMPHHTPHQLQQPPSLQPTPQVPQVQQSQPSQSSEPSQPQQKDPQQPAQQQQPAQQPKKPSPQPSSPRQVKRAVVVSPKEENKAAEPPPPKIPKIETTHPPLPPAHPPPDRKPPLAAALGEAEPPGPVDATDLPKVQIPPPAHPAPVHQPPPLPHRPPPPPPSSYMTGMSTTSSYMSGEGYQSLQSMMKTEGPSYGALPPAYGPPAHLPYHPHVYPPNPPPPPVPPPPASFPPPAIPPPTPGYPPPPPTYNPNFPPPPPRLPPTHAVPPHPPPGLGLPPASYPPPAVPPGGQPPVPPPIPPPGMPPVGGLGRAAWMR

[2] = target: CDK7/cyclin H/MAT1 complex (Homo sapiens (Human), UniProt P50613); assay: In vitro enzymatic inhibitory activity test, CDK7; format: biochemical; settings: Caliper mobility shift, 180 min at 27° C.
Chain of CDK7/cyclin H/MAT1 complex (P50613 whole entry, species assumed): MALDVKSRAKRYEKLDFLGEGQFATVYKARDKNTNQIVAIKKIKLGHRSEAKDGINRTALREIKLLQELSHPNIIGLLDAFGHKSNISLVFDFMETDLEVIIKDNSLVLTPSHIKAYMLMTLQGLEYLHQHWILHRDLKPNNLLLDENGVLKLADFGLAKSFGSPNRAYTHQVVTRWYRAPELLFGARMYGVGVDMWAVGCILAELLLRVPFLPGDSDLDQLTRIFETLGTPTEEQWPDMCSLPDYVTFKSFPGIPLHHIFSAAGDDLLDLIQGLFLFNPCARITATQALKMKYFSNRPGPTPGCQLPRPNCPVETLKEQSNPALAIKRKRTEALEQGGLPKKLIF
Chain of CDK7/cyclin H/MAT1 complex (P51946 whole entry partner, species assumed): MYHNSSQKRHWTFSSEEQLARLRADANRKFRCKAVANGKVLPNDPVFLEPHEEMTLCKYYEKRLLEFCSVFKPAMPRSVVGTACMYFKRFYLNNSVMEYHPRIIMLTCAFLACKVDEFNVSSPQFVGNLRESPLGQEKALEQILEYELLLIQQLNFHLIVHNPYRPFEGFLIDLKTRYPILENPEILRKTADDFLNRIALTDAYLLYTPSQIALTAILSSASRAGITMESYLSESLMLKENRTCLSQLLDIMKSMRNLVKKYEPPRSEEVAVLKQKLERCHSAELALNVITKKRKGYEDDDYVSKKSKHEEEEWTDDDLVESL
Chain of CDK7/cyclin H/MAT1 complex (P51948 whole entry partner, species assumed): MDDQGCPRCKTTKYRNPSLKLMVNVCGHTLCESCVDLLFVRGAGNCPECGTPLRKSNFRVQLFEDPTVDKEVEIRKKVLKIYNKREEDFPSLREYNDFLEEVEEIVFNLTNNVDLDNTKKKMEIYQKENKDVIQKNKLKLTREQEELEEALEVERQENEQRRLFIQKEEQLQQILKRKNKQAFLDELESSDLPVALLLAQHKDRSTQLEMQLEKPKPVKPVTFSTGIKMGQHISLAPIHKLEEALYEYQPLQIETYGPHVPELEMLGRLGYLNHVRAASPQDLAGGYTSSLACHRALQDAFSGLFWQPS

| SMILES | IC50 (A2780 cells; Homo sapiens, A2780, 72 h) | IC50 (HCC70 cells; Homo sapiens, HCC70, 72 h) | IC50 (CDK2/cyclin E1 complex) | IC50 (CDK9/CyclinT1) | IC50 [1] | IC50 [2] | IC50 (A2780 cells) | IC50 (HCC70 cells) |
| --- | --- | --- | --- | --- | --- | --- | --- | --- |
| FC(F)(F)c1cnc(N[C@H]2CCCNC2)nc1-c1c[nH]c2nc(N3CC4CC(C3)O4)ccc12 [Compound 34, 4-(6-(6-oxo-3-azabicyclo[3.1.1]heptan-3-yl)-1H-pyrrol[2,3-b]pyridin-3-yl)-N—((S)-piperidin-3-yl)-5-(trifluoromethyl)pyrimidine-2-amine] | 0.0033 µM | 0.015 µM | 1.27 µM | 1.66 µM | 1.09 µM | 0.0402 µM |  |  |
| FC(F)(F)c1cnc(N[C@@H]2CN3CCC2CC3)nc1-c1c[nH]c2nc(N3CCOCC3)ccc12 [Compound 44, (S)—N-(4-(6-morpholinyl-1H-pyrrol[2,3-b]pyridin-3-yl)-5-(trifluoromethyl)pyrimidin-2-yl)quinine-3-amine formate] | 0.253 µM | 0.684 µM | > 10 µM | 3.65 µM | 4.46 µM | 0.131 µM |  |  |
| CC1(C)CC[C@H](Nc2ncc(C(F)(F)F)c(-c3c[nH]c4nc(N5CCOCC5)ccc34)n2)CN1 [Compound 60, (S)—N-(6,6-dimethylpiperidin-3-yl)-4-(6-morpholinyl-1H-pyrrol[2,3-b]pyridin-3-yl)-5-(trifluoromethyl)pyrimidine-2-amine] | 0.036 µM | 0.475 µM | > 10 µM | 8.07 µM | > 10 µM | 0.00879 µM |  |  |
| C[C@H]1COCCN1c1ccc2c(-c3nc(N[C@H]4CCC5(CC5)NC4)ncc3C(F)(F)F)c[nH]c2n1 [Compound 70, (S)—N-(4-(6-((S)-3-methylmorpholinyl)-1H-pyrrol[2,3-b]pyridin-3-yl)-5-(trifluoromethyl)pyrimidin-2-yl)-4-azaspiro[2.5]octan-6-amine formate] | 0.146 µM | 0.484 µM | 37.6 µM | > 50 µM | 49 µM | 0.0412 µM |  |  |
| C[C@H]1COCCN1c1ccc2c(-c3nc(N[C@@H]4CNCC(F)(F)C4)ncc3C(F)(F)F)c[nH]c2n1 [Compound 71, N—((S)-5,5-difluoropiperidin-3-yl)-4-(6-((S)-3-methylmorpholinyl)-1H-pyrrol[2,3-b]pyridin-3-yl)-5-(trifluoromethyl)pyrimidine-2-amine] |  |  | 9.3 µM | > 50 µM | 6.68 µM | 0.0317 µM | 0.547 µM | 0.39 µM |
| C[C@H]1CNC[C@@H](Nc2ncc(C(F)(F)F)c(-c3c[nH]c4nc(N5CCOC[C@@H]5C)ccc34)n2)C1 [Compound 72, 4-(6-((S)-3-methylmorpholinyl)-1H-pyrrol[2,3-b]pyridin-3-yl)-N-((3S,5R)-5-methylpiperidin-3-yl)-5-(trifluoromethyl)pyrimidine-2-amine] |  |  | 3.35 µM | 1.82 µM | 2.54 µM | 0.0176 µM | 0.0028 µM | 0.021 µM |
| C[C@H]1COCCN1c1ccc2c(-c3nc(N[C@@H]4CNC[C@@H](F)C4)ncc3C(F)(F)F)c[nH]c2n1 [Compound 73, N-((3S,5S)-5-fluoropyridin-3-yl)-4-(6-((S)-3-methylmorpholinyl)-1H-pyrrol[2,3-b]pyridin-3-yl)-5-(trifluoromethyl)pyrimidine-2-amine] |  |  | 4.29 µM | 3.35 µM | 3.38 µM | 0.0115 µM | 0.0062 µM | 0.035 µM |
| C[C@H]1COCCN1c1ccc2c(-c3nc(N[C@@H]4CNC[C@H](F)C4)ncc3C(F)(F)F)c[nH]c2n1 [Compound 74] |  |  | 27.3 µM | > 50 µM | 12 µM | 0.0102 µM | 0.177 µM | 0.199 µM |
| C[C@H]1COCCN1c1nc2[nH]cc(-c3nc(N[C@H]4CCCNC4)ncc3C(F)(F)F)c2cc1F [Compound 75, 4-(5-fluoro-6-((S)-3-methylmorpholinyl)-1H-pyrrol[2,3-b]pyridin-3-yl)-N—((S)-piperidin-3-yl)-5-(trifluoromethyl)pyrimidine-2-amine formate] | 0.0074 µM | 0.0092 µM | 2.38 µM | 5.93 µM | 3.34 µM | 0.0085 µM |  |  |
| FC(F)(F)c1cnc(N[C@H]2CCCNC2)nc1-c1c[nH]c2cc(N3CCCC3)ccc12 [Compound 101, (S)—N-(Piperidin-3-Yl)-4-(6-(Pyrrolidin-1-Yl)-1H-Indol-3-Yl)-5-(Trifluoromethyl)Pyrimidine-2-Amine, reference compound] | 0.157 µM | 0.232 µM | > 10 µM | 4.61 µM | 1.6 µM | 0.0285 µM |  |  |
| FC(F)(F)c1cnc(N[C@H]2CCCNC2)nc1-c1c[nH]c2nc(N3C4COCC3C4)ccc12 [Compound 103, 4-(6-(3-oxo-6-azabicyclo[3.1.1]heptan-6-yl)-1H-pyrrol[2,3-b]pyridin-3-yl)-N—((S)-piperidin-3-yl)-5-(trifluoromethyl)pyrimidine-2-amine formate] | 0.0182 µM | 0.0223 µM | 2.83 µM | 3.68 µM | 1.39 µM | 0.00726 µM |  |  |
| CC[C@H]1COCCN1c1ccc2c(-c3nc(N[C@H]4CCCNC4)ncc3C(F)(F)F)c[nH]c2n1 [Compound 104, 4-(6-((S)-3-ethylmorpholinyl)-1H-pyrrol[2,3-b]pyridin-3-yl)-N—((S)-piperidin-3-yl)-5-(trifluoromethyl)pyrimidine-2-amine formate] | 0.00537 µM | 0.00497 µM | 1.55 µM | 2.75 µM | 0.773 µM | 0.00585 µM |  |  |
| FC(F)(F)c1cnc(N[C@H]2CCCNC2)nc1-c1c[nH]c2nc(C3=CCCCO3)ccc12 [Compound 109, (S)-4-(6-(3,4-dihydropyran-6-yl)-1H-pyrrol[2,3-b]pyridin-3-yl)-N-(piperidin-3-yl)-5-(trifluoromethyl)pyrimidine-2-amine] | 0.00561 µM | 0.00398 µM | 2.15 µM | 2.87 µM | 1 µM | 0.00562 µM |  |  |
| CC1COCCC1c1ccc2c(-c3nc(N[C@H]4CCCNC4)ncc3C(F)(F)F)c[nH]c2n1 (stereo partly drawn) [Compound 110, 4-(6-(3-methyltetrahydropyran-4-yl)-1H-pyrrol[2,3-b]pyridin-3-yl)-N—((S)-piperidin-3-yl)-5-(trifluoromethyl)pyrimidine-2-amine formate] | 0.0386 µM | 0.0386 µM | 2.18 µM | 4.26 µM | 1.61 µM | 0.00348 µM |  |  |
| CP(C)(=O)c1ccc2c(-c3nc(N[C@H]4CCCNC4)ncc3C(F)(F)F)c[nH]c2n1 [Compound 114, (S)-dimethyl(3-(2-(piperidine-3-amino)-5-(trifluoromethyl)pyrimidin-4-yl)-1H-pyrrolo[2,3-b]pyridin-6-yl)phosphine oxide formate] | 0.0176 µM | 0.0181 µM | 1.72 µM | 2.47 µM | 1.21 µM | 0.00673 µM |  |  |
| C[C@@H]1CNC[C@@H](Nc2ncc(C(F)(F)F)c(-c3c[nH]c4nc(N5CCOC[C@@H]5C)ccc34)n2)C1 [Compound 115, 4-(6-((S)-3-methylmorpholinyl)-1H-pyrrol[2,3-b]pyridin-3-yl)-N-((3S,5S)-5-methylpiperidin-3-yl)-5-(trifluoromethyl)pyrimidine-2-amine] | 0.0455 µM | 0.042 µM | 19.5 µM | 27.7 µM | 12.9 µM | 0.00952 µM |  |  |
